# US10315990B2, “Isothiocyanate compounds and isothiocyanate XPO1 protein inhibitor drugs thereof” (DRIVINGFORCE THERAPEUTICS Co., Ltd., priority 2015, dated 2019)
# Like-named read-outs stand apart in the source and are kept apart here.
# What was measured:
# [1] = tested on: HMLE-Snail cell line; test: Formation of HMLE-Snail cell line spheroids; type: cell-based; details: read-out: Colony (%): cell colony number of drug-treated group/cell colony number of control group × 100%
# Procedure: HMLE-Snail cell line is one of most classic cell models for studying tumor cell metastasis and EMT path. HMLE-Snail cell line highly expresses Snail protein, and thus one of most remarkable features thereof is that it has spherical cellular morphology (spheroid). […] The HMLE-Snail cell line used in the present invention was donated by Dr. Robert Weinberg from America Massachusetts Whitehead Institute. HMLE-Snail cells were suspended in a liquid culture medium (in which B-27 and N-2 were added, purchased from America Invitrogen Corporation) containing DMEM/F12 in a ratio of 1:1, in an amount of 1.0×10^3 cells/ml, and cultured in an ultra low attachment culture plate so as to allow spheroids to be formed. Seven days later, spheroids were collected by centrifugation, and counted. […] Docetaxel is a common clinical chemotherapy drug.
# [2] = tested on: NCI-H1650; test: cells; type: cell-based; details: Homo sapiens, NCI-H1650, 72 h
# Procedure: (§1) NCI-H1975 and NCI-H1650 are two typical high metastasis type lung cancer cell lines. The therapeutic effect of the representative compound for the metastasis type lung cancers can be preliminarily assessed by detecting the inhibitory activity of the representative compound for the two cell lines. The lung cancer cell line was inoculated on 96-well cell culture plate in an amount of 6000 cells per well and cultured at 37° C. for 24 hours, and then treated solely with the compound added therein and cultured. Seventy-two hours later, MTT or CCK-8 method was used to detect the inhibitory activity of the compound for the two lung cancer cell lines.
# [3] = tested on: NCI-H1975; test: cells; type: cell-based; details: Homo sapiens, NCI-H1975, 72 h
# Procedure: as §1
# [4] = tested on: IBD animal model; test: Macroscopic pathological changes of IBD animal model (enteroclysis with TNBS); type: in vivo, SD rats; details: TNBS rats; for Macroscopic pathological score: 80 mg/kg intragastrically daily, score 0-5, 10 animals
# Procedure: Eight-week-old male SD rats (10 rats per group) were fasted for 24 hours and anaesthetized with diethyl ether. 50% ethanol and TNBS (2,4,6-trinitrobenzenesulfonic acid) were mixed to prepare a solution. In the IBD model group, a tube made of vinyl resin was inserted 5 cm from anus, and enteroclysis was performed with the TNBS solution in a dose of 100 mg/kg. The rats were hung upside down 30 seconds later after the enteroclysis to ensure no leakage of the TNBS solution. In the control group, the TNBS solution was replaced with normal saline with which enteroclysis was performed. Seven days later after the enteroclysis with the TNBS solution or normal saline, animals were sacrificed and dissected. […] Two weeks later after treated with the drugs, the animals were sacrificed and dissected, and large intestine thereof was taken out and fixed in 4% formalin solution for 30 minutes. The large intestine of the animals was cut lengthwise from the mesentery side to take photos for rectum portion and measure the weight of rectum. Based on the macroscopic observation and judgment score (Table 2-1), ulceration and bleeding states of rectum portion were scored according to the macroscopic observation scoring standard.
# [5] = tested on: IL-6; test: Serum IL-6 level of IBD animal model (ELISA); type: in vivo, SD rats; details: 80 mg/kg, three days after making the TNBS model
# Description: (§2) Inflammatory bowel disease is an autoimmune disease. […] The therapeutic effect of the representative compound for the immune system disease or inflammation can be assessed by detecting change in levels of some important cytokines such as TNF-α and IL-6 at downstream of the signal path.
# [6] = tested on: 786-O; test: Inhibitory activity for other high metastasis type cancer cell line (MTT or CCK-8); type: cell-based; details: Homo sapiens
# [7] = tested on: HO-8910; test: Inhibitory activity for high metastasis type ovarian cancer cell line (MTT or CCK-8); type: cell-based
# Procedure: (§3) The two cell lines were inoculated on 96-well cell culture plate in an amount of 6000 cells per well and cultured at 37° C. for 24 hours, and then treated solely with the representative compound added therein and cultured. Seventy-two hours later, MTT or CCK-8 method was used to detect the inhibitory activity of the representative compound for the high metastasis type ovarian cancer cell lines.
# [8] = tested on: A2780; test: as above; type: cell-based; details: Homo sapiens
# Procedure: as §3
# [9] = tested on: CaSki; test: Inhibitory activity for other high metastasis type cancer cell line (MTT or CCK-8); type: cell-based; details: Homo sapiens, Ca-Ski
# [10] = biological target: T1, XPO1 protein (Homo sapiens, UniProt O14980); test: Inhibitory activity for XPO1 protein (NES-GFP nuclear export, laser confocal microscope); type: cell-based; details: for Activity (μM): inhibitory activity for XPO1 protein (full inhibitory concentration): NES-GFP nuclear export, cells treated for 2 hours
# T1 construct: Sixteen hours later, NES-GFP plasmid was transfected with liposome; endogenous in cells
# Description: NES (nuclear export signal) is a nuclear export signal peptide recognized by XPO1 protein. XPO1 recognizes NES sequence peptide segment of biomacromolecule and exports the biomacromolecule out of nucleus. NES-GFP protein is obtained by co-expressing green fluorescence protein GFP and NES sequence peptide segment by using a eukaryotic expression plasmid. Inhibitory activity of the representative compound for XPO1 protein can be assessed by detecting influence of the compound on NES-GFP cell localization.
# The cells were digested with trypsin, counted, and inoculated on 96-well plate in an amount of 1.5×10^4 cells per well. Sixteen hours later, NES-GFP plasmid was transfected with liposome.
# [11] = tested on: Panc-1; test: Inhibitory activity for other high metastasis type cancer cell line (MTT or CCK-8); type: cell-based; details: Homo sapiens
# [12] = tested on: TNF-α; test: Serum TNF-α level of IBD animal model (ELISA); type: in vivo, SD rats; details: 80 mg/kg, three days after making the TNBS model
# Description: as §2
# [13] = tested on: Saos-2; test: Inhibitory activity for other high metastasis type cancer cell line (MTT or CCK-8); type: cell-based; details: Homo sapiens
# [14] = tested on: KYSE-70; test: as above; type: cell-based; details: Homo sapiens
# [15] = Safety testing via oral administration, 6 weeks; type: in vivo; details: intragastric, 6 weeks continuously, male and female SD rats
# Procedure: The compound solution was intragastrically administrated to 6-week-old male and female SD rats (I-01: 500 mg/kg/day; I-03: 500 mg/kg/day; I-04: 500 mg/kg/day, I-06: 500 mg/kg/day, I-11: 300 mg/kg/day) for 6 weeks continuously (n=10 per group).
# [16] = tested on: Raji; test: Inhibitory activity for high metastasis type lymphoma cell line (MTT or CCK-8); type: cell-based; details: Homo sapiens, 72 hours, read-out: IC50
# Procedure: (§4) Jeko-1, Raji and U2932 are three typical high metastasis type lymphoma cell lines. The lymphoma cell line was inoculated on 96-well cell culture plate in an amount of 6000 cells per well and cultured at 37° C. for 24 hours, and then treated solely with the compound added therein and cultured. Seventy-two hours later, MTT or CCK-8 method was used to detect the inhibitory activity of the compound for the two high metastasis type lymphoma cell lines.
# [17] = tested on: Jeko-1; test: as above; type: cell-based; details: Homo sapiens; Jeko-1, 72 hours; read-out: IC50
# Procedure: as §4
# [18] = tested on: U2932; test: as above; type: cell-based; details: Homo sapiens; U2932, 72 hours; read-out: IC50
# Procedure: as §4
# [19] = tested on: SW620; test: Inhibitory activity for high metastasis type colon cancer cell line (MTT or CCK-8); type: cell-based; details: Homo sapiens, SW-620; SW620, 72 hours; read-out: IC50
# Procedure: as §4, with “SW620” for “Jeko-1, Raji”, “HCT116” for “U2932”, “two” for “three”, “colon cancer” for “lymphoma”
# [20] = tested on: HCT116; test: as above; type: cell-based; details: Homo sapiens, HCT-116; HCT116, 72 hours; read-out: IC50
# Procedure: as §4, with “SW620” for “Jeko-1, Raji”, “HCT116” for “U2932”, “two” for “three”, “colon cancer” for “lymphoma”
# [21] = tested on: SK-OV3 (high metastasis type ovarian cancer cell line); test: Ovarian cancer intraperitoneal metastasis animal model; type: in vivo, nudemice (BALB/c-nu/nu); details: Mus musculus, SK-OV-3, ip
# Procedure: The ovarian cancer intraperitoneal metastasis animal model is one of most classic animal models for studying anti-ovarian cancer metastasis drug. Sixty 5 to 6-week-old female nudemice with similar weight (BALB/c-nu/nu) were chosen. SK-OV3 (high metastasis type ovarian cancer cell line) stably expressing green fluorescence protein was screened, and prepared into a cell suspension of 2×10^6 cells/100 μl with serum-free PRMI1640 medium. […] Three weeks later, the cancer was detected with a small animal in vivo imaging apparatus (Xenogen, School of Medicine, Shanghai Jiaotong University) and photos thereof were taken. […] In the table, T represents the drug-treated group, and C represents the blank control group. T/C is (V/V0 of compound-treated group)/(V/V0 of blank control group) in which V represents the cancer volume of mouse on the day the detection was performed, and V0 represents the cancer volume of mouse on the day the administration begun.
# [22] = 10 μg/ml, treated for 24 hours, control = 100
# T1 sequence (O14980 whole entry, species assumed): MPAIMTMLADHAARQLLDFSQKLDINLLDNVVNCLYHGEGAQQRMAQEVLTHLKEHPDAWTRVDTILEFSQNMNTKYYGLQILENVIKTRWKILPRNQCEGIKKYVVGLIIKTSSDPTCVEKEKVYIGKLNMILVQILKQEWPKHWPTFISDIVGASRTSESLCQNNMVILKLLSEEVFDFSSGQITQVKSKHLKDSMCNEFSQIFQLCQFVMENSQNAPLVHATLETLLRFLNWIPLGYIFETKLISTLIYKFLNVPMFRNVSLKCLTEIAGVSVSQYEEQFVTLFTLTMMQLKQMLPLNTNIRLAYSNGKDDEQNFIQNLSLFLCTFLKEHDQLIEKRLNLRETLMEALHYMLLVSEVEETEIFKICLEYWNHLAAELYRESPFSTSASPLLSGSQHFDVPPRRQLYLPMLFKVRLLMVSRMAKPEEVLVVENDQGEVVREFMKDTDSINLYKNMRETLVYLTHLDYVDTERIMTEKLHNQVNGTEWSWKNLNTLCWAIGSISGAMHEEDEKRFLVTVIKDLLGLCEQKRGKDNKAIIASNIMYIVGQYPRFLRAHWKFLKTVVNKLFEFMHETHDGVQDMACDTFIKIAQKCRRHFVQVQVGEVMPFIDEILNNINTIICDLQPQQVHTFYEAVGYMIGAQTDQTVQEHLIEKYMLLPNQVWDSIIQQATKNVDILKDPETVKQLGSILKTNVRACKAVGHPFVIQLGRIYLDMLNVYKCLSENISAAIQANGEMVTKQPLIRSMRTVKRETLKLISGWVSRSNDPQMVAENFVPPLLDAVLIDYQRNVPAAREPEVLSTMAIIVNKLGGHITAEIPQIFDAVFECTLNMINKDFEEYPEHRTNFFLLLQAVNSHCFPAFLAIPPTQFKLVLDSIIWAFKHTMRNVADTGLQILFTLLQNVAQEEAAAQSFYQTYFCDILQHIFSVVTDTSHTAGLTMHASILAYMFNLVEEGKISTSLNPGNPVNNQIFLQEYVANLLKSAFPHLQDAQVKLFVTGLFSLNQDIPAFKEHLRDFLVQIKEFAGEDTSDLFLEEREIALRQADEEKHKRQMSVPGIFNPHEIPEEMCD
SMILES,Macroscopic pathological score [4],"Serum IL-6 level, Animal-1 [5]","Serum IL-6 level, Animal-2 [5]","Serum IL-6 level, Animal-3 [5]",Activity (μM): inhibitory activity for XPO1 protein (full inhibitory concentration) [10],"Serum TNF-α level, Animal-1 [12]","Serum TNF-α level, Animal-2 [12]","Serum TNF-α level, Animal-3 [12]","activity at 10 µg/mL [1, 22]",further results
[O-][S+](/C=C/CCN=C=S)c1ccccc1 (stereo not drawn) [Compound I-01],2.5 ± 0.1,1.5 ng/mL,1.3 ng/mL,1.2 ng/mL,1 to 5 µM,1.5 ng/mL,1.2 ng/mL,1.2 ng/mL,,"activity at 10 µg/mL ([1]; 24 h): 35 to 40%; IC50 [2]: 2700 nM; IC50 [3]: 3100 nM; IC50 ([6]; 786-0, 72 h): 1000 nM; IC50 ([7]; HO-8910, 72 h): 1900 nM; IC50 ([8]; A2780, 72 h): 2500 nM; IC50 ([9]; 72 h): 2100 nM; NES-GFP cell localization (FIG. 1) ([10]; laser confocal micrograph): most of NES-GFP protein emitting green fluorescence is congregated in nucleus; IC50 ([11]; PANC-1, 72 h): 3300 nM; IC50 ([13]; SAOS-2, 72 h): 3200 nM; IC50 ([14]; KYSE-70, 72 h): 2700 nM"
[O-][S+](/C=C/CCN=C=S)c1ccc(Cl)c(C(F)(F)F)c1 (stereo not drawn) [Compound I-03],,0.9 ng/mL,0.8 ng/mL,0.7 ng/mL,0.5 to 1 µM,1.3 ng/mL,1.1 ng/mL,0.7 ng/mL,25 to 30%,"IC50 ([6]; 786-0, 786-O, 72 hours, read-out: IC50): 1300 nM; IC50 ([9]; CaSki, 72 hours, read-out: IC50): 1500 nM; IC50 ([11]; Panc-1, 72 hours, read-out: IC50): 1600 nM; IC50 ([13]; Saos-2, 72 hours, read-out: IC50): 2600 nM; IC50 ([14]; KYSE-70, 72 hours, read-out: IC50): 1800 nM"
[O-][S+](/C=C/CCN=C=S)c1ccc2ccccc2c1 (stereo not drawn) [Compound I-11],,,,,1 to 5 µM,,,,30 to 35%,nontoxic dose [15]: at least 300 mg/kg/day
"S=C=NCCc1ccccc1 [PEITC, phenylethylisothiocyanate, reference compound]",3.5 ± 0.3,2.2 ng/mL,2.1 ng/mL,2.1 ng/mL,30 µM,2.0 ng/mL,1.9 ng/mL,2.0 ng/mL,85%,"IC50 [16]: 9300 nM; IC50 [17]: 8700 nM; IC50 [18]: 11700 nM; colon tissue bleeding and ulceration phenomena (in words) ([4]; 80 mg/kg): small relief extent; IC50 ([7]; HO-8910, 72 hours, read-out: IC50): 15500 nM; IC50 ([8]; A2780, 72 hours, read-out: IC50): 17600 nM; IC50 [19]: 10200 nM; IC50 [20]: 8400 nM; response vs control in vivo at 80 mg/kg ([21]; 504 h, 80 mg/kg intraperitoneal injection once a day for 3 weeks, read-out: T/C (%)): 71%; mortality at 80 mg/kg ([21]; 720 h, 80 mg/kg, six mice per group, read-out: Mortality (within 30 days) (converted)): 0%"
